The values that follow come from paper PMC8300687, “A Fine-Tuned Lipophilicity/Hydrophilicity Ratio Governs Antibacterial Potency and Selectivity of Bifurcated Halogen Bond-Forming NBTIs” (Antibiotics, 2021).

A value given as a limit tells only on which side of the number the result lay.

Assay [1] deals with T1, hERG potassium ion channel (Homo sapiens, UniProt Q12809).
T1 construct: purchased Invitrogen (assay run at TCG Lifesciences Pvt. Ltd.)
The assay is described as follows: FP-based hERG binding assay (Invitrogen kit). The protocol:
Cardiovascular safety profile was entirely outsourced. hERG screening was performed at TCG Lifesciences Pvt. Ltd., Kolkata, West Bengal, India with FP-based hERG binding assay (Invitrogen kit).
In general terms: The hERG channel carries a current that helps repolarise heart muscle cells.

In another assay the test system is HepG2. The assay is described as follows: Metabolic activity assessment (cytotoxicity), HepG2. The class given is cell-based. The note with it: Homo sapiens. The protocol: Cells of the HepG2 line (ATCC® HB-8065™) and HUVEC (ATCC® CRL-1730™) were cultured in Dulbecco’s Modified Eagle Medium (DMEM; Sigma-Aldrich, St. Louis, MO, USA) supplemented with 10% heat-deactivated FBS (Gibco, Grand Island, NE, USA), 2 mM L-glutamine, 100 U/mL penicillin, 100 μg/mL streptomycin (all from Sigma-Aldrich, St. Louis, MO, USA) in a humidified chamber at 37 °C and 5% CO2. The experiments were carried out on passages 7–9 for both cell lines. The tested compounds were dissolved in DMSO and further diluted in culture medium to a desired final concentration. Cells were seeded into 96-well plates at 8 × 10^4 cells/mL (100 μL/well) and incubated for 24 h to attach onto the wells. Cells were treated with 1 μM and 50 μM of each compound of interest or corresponding vehicle as control. […] The metabolic activity was assessed after 72 h treatment using the CellTiter 96 Aqueous One Solution Cell Proliferation Assay (Promega, Madison, WI, USA), in accordance with the manufacturer’s instructions. The absorbance was measured at 492 nm on an automated microplate reader BioTek Synergy HT (BioTek Instruments, Inc., Winooski, VT, USA). Data are presented as the percentage of metabolic activity of control cells stimulated with vehicle or as IC50 value (mean ± SD) from two independent experiments, each conducted in duplicate or triplicate. IC50 values were calculated by a non-linear regression model using Graph Pad Prism 7 software.

Another assay has as its target T2, S. aureus DNA gyrase (Staphylococcus aureus, UniProt P20831).
T2 construct: purchased Inspiralis (Norwich, UK)
The assay is described as follows: gel-based S. aureus Gyrase Supercoiling assay (Inspiralis). Format: biochemical. The note with it: gel-based assays by Inspiralis, as detailed in [13]. From the text: […]. […] IC50 value represents the mean of two to four independent measurements.

Where [2] appears, read: HepG2, metabolic activity after 72 h treatment.
Where [3] appears, read: HepG2, 72 h, metabolic activity after 72 h treatment.

T1 sequence (Q12809 whole entry): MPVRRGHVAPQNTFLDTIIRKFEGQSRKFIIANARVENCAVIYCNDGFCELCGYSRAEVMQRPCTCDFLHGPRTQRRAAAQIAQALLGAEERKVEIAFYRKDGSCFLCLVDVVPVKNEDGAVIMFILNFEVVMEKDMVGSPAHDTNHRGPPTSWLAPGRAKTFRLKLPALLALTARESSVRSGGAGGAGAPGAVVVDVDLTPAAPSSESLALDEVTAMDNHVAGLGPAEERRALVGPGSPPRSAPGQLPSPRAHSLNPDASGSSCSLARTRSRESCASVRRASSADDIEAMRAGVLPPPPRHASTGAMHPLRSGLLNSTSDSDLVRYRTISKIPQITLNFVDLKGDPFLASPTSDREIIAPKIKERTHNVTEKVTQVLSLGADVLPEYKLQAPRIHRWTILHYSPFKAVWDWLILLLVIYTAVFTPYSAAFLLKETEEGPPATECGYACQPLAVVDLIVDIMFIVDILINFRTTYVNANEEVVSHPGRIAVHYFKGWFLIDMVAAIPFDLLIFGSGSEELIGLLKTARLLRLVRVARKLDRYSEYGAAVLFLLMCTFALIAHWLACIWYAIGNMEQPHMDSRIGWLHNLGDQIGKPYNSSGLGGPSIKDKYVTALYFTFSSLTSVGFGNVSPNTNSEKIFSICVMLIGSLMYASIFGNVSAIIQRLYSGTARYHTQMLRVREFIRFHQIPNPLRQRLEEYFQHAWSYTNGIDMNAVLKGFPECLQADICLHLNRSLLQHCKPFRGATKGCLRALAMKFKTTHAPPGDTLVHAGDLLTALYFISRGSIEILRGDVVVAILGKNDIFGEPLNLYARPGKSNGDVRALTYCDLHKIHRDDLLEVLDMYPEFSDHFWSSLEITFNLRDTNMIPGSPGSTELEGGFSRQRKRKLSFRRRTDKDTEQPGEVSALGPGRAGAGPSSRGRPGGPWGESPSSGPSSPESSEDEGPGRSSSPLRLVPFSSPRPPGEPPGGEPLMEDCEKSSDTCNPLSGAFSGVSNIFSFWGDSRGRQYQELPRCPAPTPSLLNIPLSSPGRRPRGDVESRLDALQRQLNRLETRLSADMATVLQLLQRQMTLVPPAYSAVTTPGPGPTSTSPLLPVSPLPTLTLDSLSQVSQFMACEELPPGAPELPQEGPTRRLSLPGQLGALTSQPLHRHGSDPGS
T2 sequence (P20831 whole entry): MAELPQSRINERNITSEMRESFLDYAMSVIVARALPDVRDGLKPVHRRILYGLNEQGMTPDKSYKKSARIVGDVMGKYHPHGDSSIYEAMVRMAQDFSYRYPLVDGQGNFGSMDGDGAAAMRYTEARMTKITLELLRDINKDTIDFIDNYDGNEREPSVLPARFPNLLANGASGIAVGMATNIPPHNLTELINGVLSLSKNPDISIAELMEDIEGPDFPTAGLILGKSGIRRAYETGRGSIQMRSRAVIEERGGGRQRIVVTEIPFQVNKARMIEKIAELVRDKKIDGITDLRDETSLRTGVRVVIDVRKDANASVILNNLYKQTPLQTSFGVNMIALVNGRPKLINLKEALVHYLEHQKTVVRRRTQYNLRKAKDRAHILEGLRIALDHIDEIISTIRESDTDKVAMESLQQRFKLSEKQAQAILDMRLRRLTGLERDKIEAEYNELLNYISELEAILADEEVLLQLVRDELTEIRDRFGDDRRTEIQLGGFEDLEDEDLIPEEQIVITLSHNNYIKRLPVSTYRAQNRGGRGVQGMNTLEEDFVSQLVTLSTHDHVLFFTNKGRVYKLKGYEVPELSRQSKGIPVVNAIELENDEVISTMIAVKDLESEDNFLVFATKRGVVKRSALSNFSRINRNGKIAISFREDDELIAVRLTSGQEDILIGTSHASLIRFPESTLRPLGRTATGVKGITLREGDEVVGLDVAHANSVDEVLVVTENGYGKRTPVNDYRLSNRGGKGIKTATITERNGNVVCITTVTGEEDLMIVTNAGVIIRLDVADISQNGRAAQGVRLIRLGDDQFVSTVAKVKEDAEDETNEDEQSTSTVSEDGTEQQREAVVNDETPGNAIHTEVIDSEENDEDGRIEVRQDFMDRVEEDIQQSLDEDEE
T2 sequence (P0A0K8 whole entry partner): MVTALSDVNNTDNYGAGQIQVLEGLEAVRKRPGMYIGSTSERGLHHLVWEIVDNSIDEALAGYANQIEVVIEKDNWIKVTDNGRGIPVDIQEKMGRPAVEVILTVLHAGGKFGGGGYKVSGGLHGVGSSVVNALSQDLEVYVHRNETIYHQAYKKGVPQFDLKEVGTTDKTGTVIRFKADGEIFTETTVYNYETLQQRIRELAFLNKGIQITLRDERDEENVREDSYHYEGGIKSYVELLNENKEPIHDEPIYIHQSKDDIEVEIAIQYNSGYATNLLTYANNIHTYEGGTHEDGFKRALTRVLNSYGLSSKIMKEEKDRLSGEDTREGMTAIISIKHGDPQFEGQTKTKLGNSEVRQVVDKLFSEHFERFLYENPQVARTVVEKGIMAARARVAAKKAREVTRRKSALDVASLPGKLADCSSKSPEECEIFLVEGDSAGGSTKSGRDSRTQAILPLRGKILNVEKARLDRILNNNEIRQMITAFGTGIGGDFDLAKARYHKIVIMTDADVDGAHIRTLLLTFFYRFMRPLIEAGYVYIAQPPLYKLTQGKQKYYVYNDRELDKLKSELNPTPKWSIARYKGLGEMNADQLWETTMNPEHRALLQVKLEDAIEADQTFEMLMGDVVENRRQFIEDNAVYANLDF

As usually defined, the IC50 is the midpoint of a concentration-inhibition curve. Consider `COc1ccc2nccc(CCN3CCC(NCc4nc5ccccc5n4C)CC3)c2n1` [Compound 3, 1-(2-(6-Methoxy-1,5-naphthyridin-4-yl)ethyl)-N-((1-methyl-1H-benzo[d]imidazol-2-yl)methyl)piperidin-4-amine], for which the 50% inhibitory concentration (IC50) in assay [1] turned out to be 1.04 µM.

As for `COc1ccc2nccc(CCN3CCC(NCc4cnn(-c5ccc(F)cc5)c4)CC3)c2n1` [Compound 4, N-((1-(4-Fluorophenyl)-1H-pyrazol-4-yl)methyl)-1-(2-(6-methoxy-1,5-naphthyridin-4-yl)ethyl)piperidin-4-amine], the IC50 in the assay on HepG2 (setting [2]) was found to be 4.64 ± 0.1 µM; in assay [1] it was 0.33 µM. The corresponding values for `COc1ccc2nccc(CCN3CCC(NCc4cnn(-c5ccccc5)c4)CC3)c2n1` [Compound 5, 1-(2-(6-Methoxy-1,5-naphthyridin-4-yl)ethyl)-N-((1-phenyl-1H-pyrazol-4-yl)methyl)piperidin-4-amine] are 6.33 ± 0.19 µM and 0.62 µM. For `COc1ccc2nccc(CCN3CCC(NCc4cnn(-c5ccccc5)n4)CC3)c2n1` [Compound 8, 1-(2-(6-Methoxy-1,5-naphthyridin-4-yl)ethyl)-N-((2-phenyl-2H-1,2,3-triazol-4-yl)methyl)piperidin-4-amine] the same measures were 17.1 ± 0.98 µM and 0.37 µM.

Take `COc1ccc2nccc(CCN3CCC(NCc4cnn(C(C)C)c4)CC3)c2n1` [Compound 9, N-((1-Isopropyl-1H-pyrazol-4-yl)methyl)-1-(2-(6-methoxy-1,5-naphthyridin-4-yl)ethyl)piperidin-4-amine]: the IC50 with HepG2 (setting [2]) was above 50 µM; in assay [1], 9.82 µM. Turning to `C=CCn1cc(CNC2CCN(CCc3ccnc4ccc(OC)nc34)CC2)cn1` [Compound 10, N-((1-Allyl-1H-pyrazol-4-yl)methyl)-1-(2-(6-methoxy-1,5-naphthyridin-4-yl)ethyl)piperidin-4-amine], the results for the IC50 (with HepG2 (setting [2]); in assay [1]) were above 50 µM and 6.62 µM, respectively. For the compound `COc1ccc2nccc(CCN3CCC(NCc4ccc(I)cc4)CC3)c2n1` [Compound 15], the IC50 on S. aureus DNA gyrase is 0.011 ± 0.003 µM; in the assay with HepG2 (setting [3]), around 10 µM.

`COc1ccc2nccc(CCN3CCC(NCc4ccc(CO)cc4)CC3)c2n1` [Compound 16] returned an IC50 in assay [1] of 3.24 µM.

With `COc1ccc2nccc(CCN3CCC(NCc4ccc(OC(F)F)c(OC)c4)CC3)c2n1` [Compound 19, N-(4-(Difluoromethoxy)-3-methoxybenzyl)-1-(2-(6-methoxy-1,5-naphthyridin-4-yl)ethyl)piperidin-4-amine], the IC50 in the assay with HepG2 (setting [3]) stood at 6.31 ± 0.09 µM; in assay [1], 0.46 µM. For `COc1ccc2nccc(CCN3CCC(NCc4ccc(OC(F)F)c(O)c4)CC3)c2n1` [Compound 20, 2-(Difluoromethoxy)-5-((1-(2-(6-methoxy-1,5-naphthyridin-4-yl)ethyl)piperidin-4-ylamino)methyl)phenol] the same measures were 10.9 ± 0.12 µM and 0.18 µM.

On to `COc1ccc2nccc(CCN3CCC(NCc4ccc(C(F)(F)F)nc4)CC3)c2n1` [Compound 21, 1-(2-(6-Methoxy-1,5-naphthyridin-4-yl)ethyl)-N-((6-(trifluoromethyl)pyridin-3-yl)methyl)piperidin-4-amine], for which the values for the IC50 (in the assay on HepG2 (setting [2]); in assay [1]) were above 50 µM and 1.97 µM, respectively.

Turning to `COc1ccc(CNC2CCN(CCc3ccnc4ccc(OC)nc34)CC2)cn1` [Compound 22, 1-(2-(6-Methoxy-1,5-naphthyridin-4-yl)ethyl)-N-((6-methoxypyridin-3-yl)methyl)piperidin-4-amine], the IC50 in the assay on HepG2 (setting [2]) is 32.03 ± 0.3 µM; in assay [1], 3.05 µM.
